In brackets after ≈: the same amount, converted by molar mass. Several values for one entry are separate records, joined by “and”; a condition that tells them apart may be missing. Equal values may be shown once. Read-outs that look alike come from different tables or passages of the source.
Assays:
[1] = system: Escherichia coli (E. coli); assay: In vitro antibacterial activity, progressive double dilutions, culture turbidity; type: cell-based; conditions: for MIC: ampicillin reference against E.coli (BL21)
Excerpt: (§1) The growth of bacteria was estimated by measuring the turbidity of the culture, as previously reported. […] The pH of the media was adjusted to 7.0.

[2] = system: MRC5 human normal lung cells; assay: MTT cytostatic/cytotoxic assay; type: cell-based; conditions: MRC5, 48 h treatment; for IC50: cytocidal/cytotoxic; for GI50: growth inhibition; for TGI: total growth inhibition
Method: (§2) The cell lines were obtained from the American Type of Culture collection (ATCC), except HuP-T3 which was kindly donated from University of Crete, School of Medicine, Greece, and were grown in different culture medium according to the instructions.
(§3) For the determination of the cell viability, it was employed the MTT assay. Cells were plated in 96-well plate at a density of 1 × 10^4 cells/mL per well and maintained for 72 h at 37 °C in a 5% CO2 incubator and grown as monolayers. […] The viability of cultured cells was estimated by a (3-(4,5-imethylthiazol-2-yl)-2,5-diphenyltetrazolium bromide (MTT) metabolic assay as previously described.
(§4) In brief, MTT (Sigma, St Louis, Missouri, USA) was dissolved in PBS in a concentration of 5 mg/mL, filter sterilized, and stored at 4 °C. Then, 50 μL of stock solution was added to each culture and incubated for 3 h at 37 °C. Formazan crystals were solubilized by DMSO (100 μL). Absorbance of the converted dye was measured at a wavelength of 540 nm on ELISA reader (VersaMax Microplate Reader Orleans, USA). […] Using seven absorbance measurements [time 24 h (Ct24), control growth 72 h (Ct72), and test growth in the presence of drug at five concentration levels (Tt72x)], the percentage of growth was calculated at each level of the drug concentrations. The percentage growth inhibition was calculated according to National Cancer Institute (NCI) as: {[(Tt72x) − (Ct24)]/[(Ct72) − (Ct24)]} × 100 for concentrations for which Tt72x>Ct24 and {(Tt72x) − (Ct24)]/(Ct24)} × 100 for concentrations for which Tt72x<Ct24. […] All experiments were carried out in triplicate. A significant difference was presumed to exist when p ≤ 0.05 (two tailed paired t test).

[3] = system: SKOV-3 ovarian cancer cells; assay: MTT cytostatic/cytotoxic assay; type: cell-based, human; conditions: SKOV-3, 48 h treatment; for LC50: cytocidal/cytotoxic, read-out: IC50 (the source's name); for GI50: growth inhibition; for TGI: total growth inhibition
Method: as §2, §3
as §4, with “Using seven absorbance measurements [time 24 h (Ct24), control growth 72 h (Ct72), and test growth in the presence of drug at five concentration levels (Tt72x)], the percentage of growth was calculated at each level of the drug concentrations.” left out

[4] = system: DMS114 small cell lung cancer cells; assay: MTT cytostatic/cytotoxic assay; type: cell-based, human; conditions: DMS114, 48 h treatment; for LC50: cytocidal/cytotoxic, read-out: IC50 (the source's name); for GI50: growth inhibition; for TGI: total growth inhibition
Method: as §2, §3
as §4, with “Using seven absorbance measurements [time 24 h (Ct24), control growth 72 h (Ct72), and test growth in the presence of drug at five concentration levels (Tt72x)], the percentage of growth was calculated at each level of the drug concentrations.” left out

[5] = Reduction of hydrogen peroxide; conditions: compound 0.1 mM, 20 min, phosphate buffer pH 7.4
Method: In vitro antioxidant activity studies for 1–4 and their free ligands were performed in order to determine their ability to scavenge DPPH, and ABTS free radicals and to reduce H2O2 and was compared with the antioxidant capacity of reference compounds (NDGA, BHT, trolox and ascorbic acid).
The absorbance was measured at 230 nm after 20 min. The antioxidant activity of the compounds was expressed as percent reduction of H2O2 (%H2O2). Ascorbic acid (or vitamin C) was used as an appropriate standard.

[6] = system: Hup-T3 pancreatic adenocarcinoma cells; assay: MTT cytostatic/cytotoxic assay; type: cell-based, human; conditions: Hup-T3, 48 h treatment; for IC50: cytocidal/cytotoxic; for GI50: growth inhibition; for TGI: total growth inhibition
Method: as §2, §3, §4

[7] = system: PC3 prostate adenocarcinoma cells; assay: MTT cytostatic/cytotoxic assay; type: cell-based, human; conditions: PC3, 48 h treatment; for LC50: cytocidal/cytotoxic, read-out: IC50 (the source's name); for GI50: growth inhibition; for TGI: total growth inhibition
Method: as §2, §3, §4

[8] = system: Bacillus cereus (B. cereus); assay: In vitro antibacterial activity, progressive double dilutions, culture turbidity; type: cell-based
Excerpt: as §1

[9] = system: Staphylococcus aureus (S. aureus); assay: as above; type: cell-based
Excerpt: as §1

[10] = system: Bacillus subtilis (B. subtilis); assay: as above; type: cell-based
Excerpt: as §1

[11] = system: calf-thymus (CT) DNA; assay: CT DNA interaction by UV-visible spectroscopy; conditions: DMSO solution, upon addition of CT DNA; + hyperchromism, – hypochromism
Method: The UV-visible spectra of CT DNA solution (1.5 × 10^−4 M) were recorded in the presence of each compound at diverse [compound]/[DNA] mixing ratios (r).

[12] = Escherichia coli, read-out: MIC
[13] = value in parentheses, mean ± SD, read-out: IC50
[14] = Bacillus cereus, read-out: IC50
[15] = Staphylococcus aureus, read-out: IC50
[16] = Staphylococcus aureus, read-out: MIC
[17] = Bacillus subtilis, read-out: IC50
[18] = Bacillus subtilis, read-out: MIC
[19] = Escherichia coli, read-out: IC50

Row | MIC [1, 12] [mg/L] | Structure (SMILES) | IC50 [2] [µM] | GI50 [2] [µM] | TGI [2] [μΜ] | H2O2 reducing ability (%H2O2) [5] | IC50 [8] [mg/L] | MIC [8] | IC50 [8, 13] [µM] | IC50 [9] [mg/L] | MIC [9] | IC50 [9, 13] [µM] | IC50 [10] | MIC [10] | IC50 [10, 13] [µM] | IC50 [1] | MIC [1] | also measured
1 | 100 (≈ 286 µM) | CC1(C)S[C@@H]2[C@H](NC(=O)[C@H](N)c3ccccc3)C(=O)N2[C@H]1C(=O)O [Ampicillin, reference compound] | – | – | – | – | – | – | – | – | – | – | – | – | – | – | – | –
2 | – | N.N.[Cl][Pt][Cl] [Cisplatin, reference compound] | 36 ± 2 | 8 ± 1 | 24±2 | – | – | – | – | – | – | – | – | – | – | – | – | –
3 | – | Cc1n[nH]c(=S)s1.[Cl][Ag].c1ccc(P(c2ccccc2)c2ccccc2)cc1.c1ccc(P(c2ccccc2)c2ccccc2)cc1 [Compound 1, [AgCl(mtdztH)(PPh3)2]] | 9.2 ± 0.8 | 3 ± 0.5 | 5.2±0.5 | 74.85±0.79% | 81 | 100 mg/L | 101 ± 10.3 | 16 | 100 mg/L | 20 ± 3.2 | 21 mg/L | 100 mg/L | 26 ± 4 | higher than 100 μg/mL | higher than 100 μg/mL | LC50 [3]: 5.7 ± 0.4 µM; GI50 [3]: 1.2 ± 0.2 µM; TGI [3]: 3.1±0.4 μΜ; LC50 [4]: 4.5 ± 0.3 µM; GI50 [4]: 1.9 ± 0.1 µM; TGI [4]: 3.1±0.1 μΜ; IC50 [6]: 9.2 ± 0.3 µM; GI50 [6]: 2.2 ± 0.2 µM; TGI [6]: 4.1±0.3 μΜ; LC50 [7]: 9.6 ± 0.5 µM; GI50 [7]: 3 ± 0.3 µM; TGI [7]: 5.7±0.5 μΜ; activity against the Gram-(–) E. coli bacteria (in words) [1]: negligible activity
4 | – | Cc1nnc([S][Ag])s1.c1ccc(P(c2ccccc2)c2ccccc2)cc1.c1ccc(P(c2ccccc2)c2ccccc2)cc1.c1ccc(P(c2ccccc2)c2ccccc2)cc1 [Compound 2, [Ag(mtdzt)(PPh3)3]] | 4.1 ± 0.06 | 2 ± 0.02 | 3.0±0.05 | 80.59±0.55% and 80% | 12.5 | 100 mg/L | 12 ± 1.4 | 17 | 100 mg/L | 16 ± 2.6 | 20 mg/L | 100 mg/L | 19 ± 2.8 | higher than 100 μg/mL | higher than 100 μg/mL | LC50 [3]: 4.1 ± 0.3 µM; GI50 [3]: 1.9 ± 0.2 µM; TGI [3]: 3.0±0.3 μΜ; LC50 [4]: 4 ± 0.25 µM; GI50 [4]: 1.2 ± 0.05 µM; TGI [4]: 2.6±0.1 μΜ; IC50 [6]: 4.5 ± 0.2 µM; GI50 [6]: 1.9 ± 0.2 µM; TGI [6]: 3.2±0.2 μΜ; LC50 [7]: 4.4 ± 0.15 µM; GI50 [7]: 2 ± 0.05 µM; TGI [7]: 3.2±0.12 μΜ; activity against the Gram-(–) E. coli bacteria (in words) [1]: negligible activity
5 | – | O=C1O[C@H]([C@@H](O)CO)C(O)=C1O [L-ascorbic acid, reference compound] | – | – | – | 60.80±0.20% | – | – | – | – | – | – | – | – | – | – | – | –
6 | – | c1ccc(P(c2ccccc2)c2ccccc2)cc1 [PPh3, thriphenylphosphine, reference compound] | – | – | – | 87.96±1.32% | 70 | higher than 100 μg/mL | 267 ± 9 | 70 | higher than 100 μg/mL | 267 ± 2.2 | higher than 100 μg/mL | higher than 100 μg/mL | > 380 | 51 mg/L | higher than 100 μg/mL | IC50 [1, 13]: 194 ± 2 µM
7 | > 100 | c1ccc(P(CCP(c2ccccc2)c2ccccc2)c2ccccc2)cc1 [dppe, 1,2-bis(diphenylphosphino)ethane, reference compound] | – | – | – | 92.64±0.71% | – | – | – | – | – | – | – | – | – | – | – | IC50 [8, 14]: > 100 mg/L; MIC ([8]; Bacillus cereus, read-out: MIC): > 100 mg/L; IC50 [9, 15]: > 100 mg/L; MIC [9, 16]: > 100 mg/L; IC50 [10, 17]: > 100 mg/L; MIC [10, 18]: > 100 mg/L; IC50 [1, 19]: > 100 mg/L

Row | Structure (SMILES) | MIC [1, 12] [mg/L] | IC50 [2] [µM] | GI50 [2] [µM] | TGI [2] [μΜ] | H2O2 reducing ability (%H2O2) [5] | IC50 [8] [mg/L] | MIC [8] | IC50 [8, 13] [µM] | IC50 [9] [mg/L] | MIC [9] | IC50 [9, 13] [µM] | IC50 [10] | MIC [10] | IC50 [10, 13] [µM] | IC50 [1] | MIC [1] | also measured
8 | Cc1nnc(S)s1 [mtdztH, 5-methyl-1,3,4-thiadiazole-2-thiol, reference compound] | > 100 | – | – | – | 97.17±0.10% | – | – | – | – | – | – | – | – | – | – | – | percentage of hyper-/hypochromism ΔA/Aο [11]: –12%; IC50 [8, 14]: 21 mg/L; MIC ([8]; Bacillus cereus, read-out: MIC): > 100 mg/L; IC50 ([8]; Bacillus cereus, value in parentheses, mean ± SD, read-out: IC50): 159 ± 8.9 µM; IC50 [9, 15]: 21 mg/L; MIC [9, 16]: > 100 mg/L; IC50 ([9]; Staphylococcus aureus, value in parentheses, mean ± SD, read-out: IC50): 159 ± 9 µM; IC50 [10, 17]: 53 mg/L; MIC [10, 18]: > 100 mg/L; IC50 ([10]; Bacillus subtilis, value in parentheses, mean ± SD, read-out: IC50): 401 ± 16.2 µM; IC50 [1, 19]: 30 mg/L; IC50 ([1]; Escherichia coli, value in parentheses, mean ± SD, read-out: IC50): 227 ± 6 µM

— article PMC9823356, “Inhibition of Cancer Cell Proliferation and Bacterial Growth by Silver(I) Complexes Bearing a CH3-Substituted Thiadiazole-Based Thioamide” (Molecules, 2023)
